We go through 18 compounds from ChEMBL document CHEMBL1932917, “4,5-dihydropyridazin-3-one derivatives as histamine H₃ receptor inverse agonists” (Bioorg Med Chem Lett, 2012).

The target of assay [1] is T1, Histamine H3 receptor (Homo sapiens, UniProt Q9Y5N1). The experiment in a line: Displacement of [3H]NAMH from human histamine H3 receptor expressed in CHO cells. It counts as cell-based. (In general: Displacement assays read how much labelled ligand stays bound in the presence of the test substance.)
The target in assay [2] is Histamine H3 receptor (Rattus norvegicus, UniProt Q9QYN8). As to the kind of experiment: Displacement of [3H]NAMH from rat histamine H3 receptor expressed in CHO cells. It counts as cell-based.
The target in assay [3] is T1, Histamine H3 receptor. As to the kind of experiment: Antagonist activity at human histamine H3 receptor by [35S]GTPgammaS binding assay. It counts as functional.

Usually Ki stands for a dissociation constant, usually derived from enzyme kinetics or from competition with a known ligand. High values mean lower affinity, low ones higher affinity. The Kb is the affinity of an antagonist, worked out from how it opposes an agonist. A higher Kb goes with lower antagonist affinity.

Histamine H3 receptor (Rattus norvegicus, UniProt Q9QYN8), sequence (Q9QYN8 whole entry): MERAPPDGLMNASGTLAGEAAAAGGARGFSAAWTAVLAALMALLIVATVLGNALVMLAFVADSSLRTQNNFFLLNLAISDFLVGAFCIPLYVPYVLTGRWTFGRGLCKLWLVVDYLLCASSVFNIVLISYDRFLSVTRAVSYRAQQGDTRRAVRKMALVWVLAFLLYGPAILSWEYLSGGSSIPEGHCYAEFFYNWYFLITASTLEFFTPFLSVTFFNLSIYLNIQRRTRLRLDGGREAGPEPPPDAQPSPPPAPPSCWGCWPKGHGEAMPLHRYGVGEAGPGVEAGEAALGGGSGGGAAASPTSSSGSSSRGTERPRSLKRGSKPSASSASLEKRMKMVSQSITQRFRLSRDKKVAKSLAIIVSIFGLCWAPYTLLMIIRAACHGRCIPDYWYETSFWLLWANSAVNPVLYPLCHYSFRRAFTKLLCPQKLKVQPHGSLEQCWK
T1 sequence (Q9Y5N1 whole entry): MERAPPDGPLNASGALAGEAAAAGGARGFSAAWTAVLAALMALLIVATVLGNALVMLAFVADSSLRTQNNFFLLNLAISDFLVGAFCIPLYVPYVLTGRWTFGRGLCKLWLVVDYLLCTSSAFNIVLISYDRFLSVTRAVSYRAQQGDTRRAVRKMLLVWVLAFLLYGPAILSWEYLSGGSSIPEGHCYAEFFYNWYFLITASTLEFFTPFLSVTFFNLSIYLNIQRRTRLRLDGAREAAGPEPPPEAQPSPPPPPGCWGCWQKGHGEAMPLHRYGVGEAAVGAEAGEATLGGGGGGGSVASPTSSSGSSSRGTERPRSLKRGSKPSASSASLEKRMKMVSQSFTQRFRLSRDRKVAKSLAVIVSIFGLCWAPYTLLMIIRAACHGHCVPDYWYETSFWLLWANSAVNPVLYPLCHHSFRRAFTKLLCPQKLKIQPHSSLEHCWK

Regarding `C[C@@H]1CCCN1CCCOc1ccc(C2=NN(CC(F)(F)F)C(=O)CC2)cc1`, the Ki turned out to be 5 nM on Histamine H3 receptor [1] and 10 nM on Histamine H3 receptor [2]. Consider `C[C@@H]1CCCN1CCCOc1ccc(C2=NN(c3ccccn3)C(=O)CC2)cc1`, for which the inhibitory constant (Ki) on Histamine H3 receptor [1] turned out to be 12 nM; at Histamine H3 receptor [2], 42 nM. The like results for `CC(C)N1N=C(c2ccc(OCCCN3CCC[C@H]3C)cc2)CCC1=O` were, in that order, 9 nM and 63 nM. In the case of `O=C1CCC(c2ccc(OCCCN3CCCC3)cc2)=NN1`, the Ki came out at 74 nM at Histamine H3 receptor [1] and 256 nM at Histamine H3 receptor [2]. Consider `CC1CC(=O)NN=C1c1ccc(OCCCN2CCCCC2)cc1` (racemic), for which the Ki is 21 nM on Histamine H3 receptor [1] and 28 nM at Histamine H3 receptor [2]. With `CC1CC(=O)NN=C1c1ccc(OCCCN2CCC[C@H]2C)cc1` (stereo in doubt; 19a), at Histamine H3 receptor [3], the Kb worked out at 0.68 nM.

Take `C[C@@H]1CCCN1CCCOc1ccc(C2=NN(C)C(=O)CC2)cc1`: the Ki at Histamine H3 receptor [1] was 5 nM; at Histamine H3 receptor [2], 16 nM. The like results for `C[C@@H]1CCCN1CCCOc1ccc(C2=NNC(=O)CC2c2ccccn2)cc1` (mixture of isomers) were, in that order, 9.9 nM and 21 nM. The like results for `C[C@H]1CCCN1CCCOc1ccc(C2=NNC(=O)CC2)cc1` were, in that order, 37 nM and 114 nM. Regarding `CC1CC(=O)NN=C1c1ccc(OCCCN2CCCC2)cc1` (racemic), the results for the Ki on Histamine H3 receptor [1] and on Histamine H3 receptor [2] were 83 nM and 85 nM, respectively. `CC1CC(=O)NN=C1c1ccc(OCCCN2CCC[C@H]2C)cc1` (single isomer, unassigned; isomer 2): the Kb on Histamine H3 receptor [3] worked out at 0.54 nM. This lies in the sub-nanomolar range.

As for `CC1CC(=O)NN=C1c1ccc(OCCCN2CCC[C@H]2C)cc1` (mixture of isomers), the Ki on Histamine H3 receptor [1] amounted to 5.6 nM; at Histamine H3 receptor [2], 18 nM.

Consider `C[C@@H]1CCCN1CCCOc1ccc(C2=NN(Cc3ccccc3)C(=O)CC2)cc1`, for which the Ki turned out to be 2 nM at Histamine H3 receptor [1] and 25 nM on Histamine H3 receptor [2]. The like results for `C[C@@H]1CCCN1CCCOc1ccc(C2=NNC(=O)CC2(C)C)cc1` were, in that order, 20 nM and 59 nM. In the case of `O=C1CCC(c2ccc(OCCCN3CCCCC3)cc2)=NN1CC(F)(F)F`, the values for the Ki on Histamine H3 receptor [1] and at Histamine H3 receptor [2] were 38 nM and 62 nM, respectively.

For the compound `CC1CC(c2ccc(OCCCN3CCC[C@H]3C)cc2)=NNC1=O` (mixture of isomers), the Ki at Histamine H3 receptor [1] amounted to 1.9 nM; on Histamine H3 receptor [2], 4 nM. In the same order, the values of `C[C@@H]1CCCN1CCCOc1ccc(C2=NNC(=O)C(c3ccccn3)C2)cc1` (mixture of isomers) are 8.8 nM and 42 nM.

As for `C[C@@H]1CCCN1CCCOc1ccc(C2=NN(c3ccccc3)C(=O)CC2)cc1`, the Ki at Histamine H3 receptor [1] was 10 nM; at Histamine H3 receptor [2], 16 nM.
